As a reminder, the inhibition is the share of the control response that was lost under treatment.

Our source for the inhibition values is ChEMBL document CHEMBL3045870, “Some new thiazolyl thiazolidinedione derivatives as aldose reductase inhibitors” (Med Chem Res, 2007).

This assay deals with Aldo-keto reductase family 1 member B1 (Rattus norvegicus) (UniProt P07943). Briefly: Inhibition of Rattus norvegicus (rat) kidney aldose reductase using D-L-glyceraldehyde as substRattus norvegicus (rat) e assessed as decrease in NADPH level at 10^-4 M measured for 5 min by spectrophotometric analysis.

As for `O=C1S/C(=C\c2sc(SCc3ccc(Cl)cc3)nc2Cl)C(=O)N1Cc1ccc([N+](=O)[O-])cc1`, the inhibition was 0%. Take `O=C1S/C(=C\c2sc(N3CCCCC3)nc2Cl)C(=O)N1Cc1ccc(Br)cc1`: the inhibition turned out to be 0.62%. For `O=C1S/C(=C\c2sc(SCc3ccc(Cl)cc3)nc2Cl)C(=O)N1Cc1ccc(Cl)cc1`, the inhibition turned out to be 0%. Regarding `O=C1S/C(=C\c2sc(N3CCCCC3)nc2Cl)C(=O)N1Cc1ccc([N+](=O)[O-])cc1`, the inhibition worked out at 2.49%. On to `O=C1S/C(=C\c2sc(SCc3ccc(Cl)cc3)nc2Cl)C(=O)N1Cc1ccc(Br)cc1`, for which the inhibition is 0%. The figure for `O=C1S/C(=C\c2sc(N3CCCCC3)nc2Cl)C(=O)N1Cc1ccc(Cl)cc1Cl` is 3.27%; for `O=C1S/C(=C\c2sc(SCc3ccc(Cl)cc3)nc2Cl)C(=O)N1Cc1ccc(F)cc1` it is 0%. Take `O=C1S/C(=C\c2sc(N3CCCCC3)nc2Cl)C(=O)N1Cc1ccc(Cl)cc1`: the inhibition was 0.62%. To `O=C1S/C(=C\c2sc(N3CCCCC3)nc2Cl)C(=O)N1Cc1ccc(F)cc1` belongs 0%; to `O=C1S/C(=C\c2sc(SCc3ccc(Cl)cc3)nc2Cl)C(=O)N1Cc1ccccc1`, 0%; to `O=C1S/C(=C\c2sc(N3CCCCC3)nc2Cl)C(=O)N1Cc1ccccc1`, 0%. Turning to `O=C1S/C(=C\c2sc(SCc3ccc(Cl)cc3)nc2Cl)C(=O)N1Cc1ccc(Cl)cc1Cl`, the inhibition is 1.56%.
